Laboratory results published in US12421243B2, “Pharmaceutically effective compounds inhibiting selectively the myosin 2 isoforms” (PRINTNET KERESKEDELMI ÉS SZOLGÁLTATÓ KFT., priority 2018, dated 2025).

Legend:
[1] = target: recombinant Dictyostelium miozin (Dictyostelium) (Dictyostelium discoideum, UniProt P08799); test: actomyosin steady state ATPase measurement, Dictyostelium myosin; assay type: biochemical; conditions: for IC50: concentration required for semi-maximal inhibition of ATPase, read-out: IC50 (μM) Dicty; for % inhibition. complete Dicty: maximum value of inhibition of ATPase activity; for inhibition at 5 µM: read-out: % inhibition at 5 μM (or 10 μM if racemate) Dicty; for inhibition at 50 µM: read-out: % inhibition at 50 μM (or 100 μM if racemate) Dicty
Excerpt: (§1) […]; (ii) the concentration required for semi-maximal inhibition.

[2] = solubility in PBS in the presence of 1% DMSO; assay type: physicochemical; conditions: phosphate buffered saline with 1% DMSO, aqueous buffer, kinetic from dmso stock, PBS w/o Mg, Ca
[3] = target: isolated smooth muscle myosin (UniProt P10587); assay type: biochemical, chamois; conditions: concentration required for semi-maximal inhibition of ATPase
Excerpt: (ii) the concentration required for semi-maximal inhibition.

[4] = target: isolated smooth muscle myosin (UniProt P10587); assay type: biochemical, chamois; conditions: for % inhibition at 5 μM (or 10 μM if racemate) Smooth: 5 μM (10 μM if racemate); for % inhibition at 5 μM (or 10 μM if racemate) Smooth / % inhibition at 50 μM (or 100 μM if racemate) Smooth: ATPase activity; for % inhibition at 50 μM (or 100 μM if racemate) Smooth: 50 μM (100 μM if racemate); for % inhibition. complete Smooth: maximum value of inhibition of ATPase activity
[5] = test system: isolated rabbit skeletal muscle myosin (skeletal); test: actomyosin steady state ATPase measurement, skeletal muscle myosin; assay type: biochemical; conditions: for % inhibition at 5 μM (or 10 μM if racemate) Skeletal: 5 μM (10 μM if racemate); for % inhibition at 5 μM (or 10 μM if racemate) Skeletal / % inhibition at 50 μM (or 100 μM if racemate) Skeletal: ATPase activity; for % inhibition at 50 μM (or 100 μM if racemate) Skeletal: 50 μM (100 μM if racemate); for IC50: concentration required for semi-maximal inhibition of ATPase; for % inhibition. complete Skeletal: maximum value of inhibition of ATPase activity
Excerpt: as §1

[6] = target: recombinant human non-muscle myosin 2 NM2A (Homo sapiens, UniProt P35579); test: actomyosin steady state ATPase measurement, NM2A; assay type: biochemical; conditions: for IC50: concentration required for semi-maximal inhibition of ATPase; for % inhibition. complete NM2A: maximum value of inhibition of ATPase activity; for inhibition at 5 µM: read-out: % inhibition at 5 μM (or 10 μM if racemate) NM2A, 5 μM (10 μM if racemate); for inhibition at 5 µM / inhibition at 50 µM: ATPase activity; for inhibition at 50 µM: read-out: % inhibition at 50 μM (or 100 μM if racemate) NM2A, 50 μM (100 μM if racemate)
Excerpt: as §1

[7] = target: T1, isolated porcine cardiac ventricular myocardium (cardiac) (Sus scrofa, UniProt P79293); test: actomyosin steady state ATPase measurement, cardiac myosin; assay type: biochemical; conditions: for IC50: concentration required for semi-maximal inhibition of ATPase; for % inhibition. complete cardiac: maximum value of inhibition of ATPase activity; for inhibition at 5 µM: read-out: % inhibition at 5 μM (or 10 μM if racemate) cardiac, 5 μM (10 μM if racemate); for inhibition at 5 µM / inhibition at 50 µM: ATPase activity; for inhibition at 50 µM: read-out: % inhibition at 50 μM (or 100 μM if racemate) cardiac, 50 μM (100 μM if racemate)
T1 construct: isolated porcine cardiac ventricular myocardium (cardiac); from tissue; host or cells: porcine cardiac ventricle
Excerpt: as §1

[8] = target: recombinant human non-muscle myosin 2 NM2C (Homo sapiens, UniProt Q7Z406); test: actomyosin steady state ATPase measurement, NM2C; assay type: biochemical; conditions: for IC50: concentration required for semi-maximal inhibition of ATPase; for % inhibition. complete NM2C: maximum value of inhibition of ATPase activity; for inhibition at 5 µM: read-out: % inhibition at 5 μM (or 10 μM if racemate) NM2C, 5 μM (10 μM if racemate); for inhibition at 5 µM / inhibition at 50 µM: ATPase activity; for inhibition at 50 µM: read-out: % inhibition at 50 μM (or 100 μM if racemate) NM2C, 50 μM (100 μM if racemate)
Excerpt: as §1

[9] = test system: M. quadriceps femoris; test: isometric force measurement of live, anesthetized rat M. quadriceps femoris due to electrical stimulation; assay type: in vivo
Experimental: (§2) The maximum isometric force induced by the stimulation was determined after intraperitoneal injection of some of the compounds of the invention. During the measurement, the following parameters of live anesthetized rats were continuously monitored: • a) heart rate • b) blood flow in the neck arteries • c) respiratory frequency • d) blood oxygen saturation ratio Results from live anesthetized rats are summarized in the table below.

[10] = vital parameters of live anesthetized rats monitored during isometric force measurement; assay type: in vivo; conditions: anesthetized rat; for Maximum change of vital parameters (%) blood flow: neck arteries
Experimental: as §2, with “ratio” for “ratio Results from live anesthetized rats are summarized in the table below.”

T1 sequence (P79293 whole entry): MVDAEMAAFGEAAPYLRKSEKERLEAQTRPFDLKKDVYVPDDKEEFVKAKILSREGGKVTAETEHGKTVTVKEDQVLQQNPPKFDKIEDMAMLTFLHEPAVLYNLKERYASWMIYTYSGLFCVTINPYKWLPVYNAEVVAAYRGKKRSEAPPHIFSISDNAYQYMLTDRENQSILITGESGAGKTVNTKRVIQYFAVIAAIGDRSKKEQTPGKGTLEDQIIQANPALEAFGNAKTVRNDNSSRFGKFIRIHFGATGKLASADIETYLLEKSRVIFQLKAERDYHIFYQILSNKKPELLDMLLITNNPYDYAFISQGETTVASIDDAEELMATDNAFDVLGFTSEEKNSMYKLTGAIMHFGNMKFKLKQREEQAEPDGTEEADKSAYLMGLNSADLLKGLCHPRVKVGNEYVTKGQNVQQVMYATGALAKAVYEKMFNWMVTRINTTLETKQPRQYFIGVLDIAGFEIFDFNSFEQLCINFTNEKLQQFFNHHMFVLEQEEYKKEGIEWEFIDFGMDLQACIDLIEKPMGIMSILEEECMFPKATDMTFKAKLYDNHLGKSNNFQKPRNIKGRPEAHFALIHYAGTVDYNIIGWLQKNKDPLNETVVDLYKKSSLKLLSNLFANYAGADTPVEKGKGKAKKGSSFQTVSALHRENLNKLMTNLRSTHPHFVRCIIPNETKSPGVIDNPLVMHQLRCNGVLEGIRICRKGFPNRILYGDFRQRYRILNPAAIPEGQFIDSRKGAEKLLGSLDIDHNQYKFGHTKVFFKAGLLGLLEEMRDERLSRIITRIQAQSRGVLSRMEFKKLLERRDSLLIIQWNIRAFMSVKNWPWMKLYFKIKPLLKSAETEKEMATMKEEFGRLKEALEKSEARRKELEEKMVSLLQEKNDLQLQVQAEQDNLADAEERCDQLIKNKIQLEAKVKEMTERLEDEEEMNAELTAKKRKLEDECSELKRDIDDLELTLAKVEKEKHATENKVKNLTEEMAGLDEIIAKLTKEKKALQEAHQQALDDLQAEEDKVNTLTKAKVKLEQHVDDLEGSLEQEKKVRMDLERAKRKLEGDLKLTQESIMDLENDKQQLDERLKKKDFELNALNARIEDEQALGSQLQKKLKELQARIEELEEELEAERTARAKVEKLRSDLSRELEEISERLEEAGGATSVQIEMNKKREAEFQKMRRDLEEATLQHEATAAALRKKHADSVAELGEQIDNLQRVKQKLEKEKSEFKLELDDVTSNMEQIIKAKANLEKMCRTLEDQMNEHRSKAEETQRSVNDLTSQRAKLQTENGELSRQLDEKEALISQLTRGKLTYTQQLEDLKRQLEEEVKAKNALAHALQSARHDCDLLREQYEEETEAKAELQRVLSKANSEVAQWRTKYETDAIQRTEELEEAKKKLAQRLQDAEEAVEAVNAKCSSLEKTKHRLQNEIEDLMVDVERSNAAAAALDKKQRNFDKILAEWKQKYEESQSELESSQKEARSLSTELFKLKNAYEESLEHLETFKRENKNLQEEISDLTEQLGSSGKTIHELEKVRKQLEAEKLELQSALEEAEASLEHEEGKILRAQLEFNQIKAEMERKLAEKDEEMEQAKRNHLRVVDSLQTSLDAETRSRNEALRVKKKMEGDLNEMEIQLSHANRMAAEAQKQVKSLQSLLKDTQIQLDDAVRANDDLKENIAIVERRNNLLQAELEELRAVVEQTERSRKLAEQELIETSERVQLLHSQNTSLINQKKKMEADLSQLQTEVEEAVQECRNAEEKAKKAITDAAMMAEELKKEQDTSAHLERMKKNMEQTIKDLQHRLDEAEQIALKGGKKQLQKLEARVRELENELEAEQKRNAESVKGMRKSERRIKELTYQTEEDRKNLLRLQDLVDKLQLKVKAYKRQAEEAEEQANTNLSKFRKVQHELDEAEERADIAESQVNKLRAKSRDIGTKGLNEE
recombinant human non-muscle myosin 2 NM2A, sequence (P35579 whole entry): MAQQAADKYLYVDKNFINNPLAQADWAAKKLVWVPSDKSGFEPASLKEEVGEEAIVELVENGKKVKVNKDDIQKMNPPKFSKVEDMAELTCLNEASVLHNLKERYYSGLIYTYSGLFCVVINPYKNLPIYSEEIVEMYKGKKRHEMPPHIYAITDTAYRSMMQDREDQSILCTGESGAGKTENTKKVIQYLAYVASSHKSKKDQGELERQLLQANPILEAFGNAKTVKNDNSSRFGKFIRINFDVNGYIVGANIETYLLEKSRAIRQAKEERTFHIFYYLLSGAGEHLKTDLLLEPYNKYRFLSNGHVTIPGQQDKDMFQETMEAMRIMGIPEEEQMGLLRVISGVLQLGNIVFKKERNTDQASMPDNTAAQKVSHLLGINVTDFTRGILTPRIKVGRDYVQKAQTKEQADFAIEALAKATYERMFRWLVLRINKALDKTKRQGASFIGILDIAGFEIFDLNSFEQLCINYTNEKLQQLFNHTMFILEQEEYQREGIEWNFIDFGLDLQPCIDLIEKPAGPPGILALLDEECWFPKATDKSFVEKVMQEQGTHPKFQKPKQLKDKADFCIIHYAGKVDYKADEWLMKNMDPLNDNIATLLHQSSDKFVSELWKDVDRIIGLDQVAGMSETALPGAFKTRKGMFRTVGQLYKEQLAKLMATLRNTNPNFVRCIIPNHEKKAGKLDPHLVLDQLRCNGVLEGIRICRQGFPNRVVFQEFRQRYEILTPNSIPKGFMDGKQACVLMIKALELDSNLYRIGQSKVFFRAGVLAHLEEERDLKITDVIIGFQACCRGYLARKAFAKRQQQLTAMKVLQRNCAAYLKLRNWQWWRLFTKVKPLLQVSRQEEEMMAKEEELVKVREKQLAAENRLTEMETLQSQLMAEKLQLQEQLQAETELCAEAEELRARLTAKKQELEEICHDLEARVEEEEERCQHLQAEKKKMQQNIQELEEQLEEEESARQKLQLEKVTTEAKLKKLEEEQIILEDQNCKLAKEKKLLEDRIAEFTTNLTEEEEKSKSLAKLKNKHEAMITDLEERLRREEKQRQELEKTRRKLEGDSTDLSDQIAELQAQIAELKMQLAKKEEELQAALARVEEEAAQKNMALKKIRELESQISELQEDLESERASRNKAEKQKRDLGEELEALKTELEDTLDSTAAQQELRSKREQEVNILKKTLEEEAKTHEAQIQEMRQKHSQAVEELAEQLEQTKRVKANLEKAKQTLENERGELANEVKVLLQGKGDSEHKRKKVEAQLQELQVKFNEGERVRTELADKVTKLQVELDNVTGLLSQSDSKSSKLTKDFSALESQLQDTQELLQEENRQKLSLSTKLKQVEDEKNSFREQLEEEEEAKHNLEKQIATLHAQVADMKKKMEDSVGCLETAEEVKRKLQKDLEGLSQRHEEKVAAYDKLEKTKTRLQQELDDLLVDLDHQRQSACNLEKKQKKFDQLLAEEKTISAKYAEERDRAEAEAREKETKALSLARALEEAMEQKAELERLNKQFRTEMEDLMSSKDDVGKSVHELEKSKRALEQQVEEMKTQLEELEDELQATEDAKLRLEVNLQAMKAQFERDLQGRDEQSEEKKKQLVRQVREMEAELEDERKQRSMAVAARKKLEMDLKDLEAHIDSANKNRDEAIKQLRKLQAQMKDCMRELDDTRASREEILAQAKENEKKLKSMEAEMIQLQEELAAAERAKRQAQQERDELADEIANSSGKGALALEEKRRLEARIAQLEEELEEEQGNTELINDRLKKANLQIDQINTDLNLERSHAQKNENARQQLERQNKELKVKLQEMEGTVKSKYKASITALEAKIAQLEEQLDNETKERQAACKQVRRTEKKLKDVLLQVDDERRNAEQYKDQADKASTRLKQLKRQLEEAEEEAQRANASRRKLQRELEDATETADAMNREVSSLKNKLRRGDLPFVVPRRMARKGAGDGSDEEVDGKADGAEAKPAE

Compound	IC50 [1] [µM]	% inhibition. complete Dicty [1] [%]	inhibition at 5 µM [1] [%]	inhibition at 50 µM [1] [%]	IC50 [3] [µM]	% inhibition at 5 μM (or 10 μM if racemate) Smooth [4] [%]	% inhibition at 50 μM (or 100 μM if racemate) Smooth [4] [%]	% inhibition. complete Smooth [4] [%]	% inhibition at 5 μM (or 10 μM if racemate) Skeletal [5] [%]	% inhibition at 50 μM (or 100 μM if racemate) Skeletal [5] [%]	IC50 [5] [µM]	% inhibition. complete Skeletal [5] [%]	IC50 [7] [µM]	% inhibition. complete cardiac [7] [%]	inhibition at 5 µM [7] [%]	inhibition at 50 µM [7] [%]	IC50 [8] [µM]	% inhibition. complete NM2C [8] [%]	inhibition at 5 µM [8] [%]	inhibition at 50 µM [8] [%]	also measured
CC(=O)c1ccc(N2CC[C@@]3(O)C(=O)c4ccsc4N=C23)cc1 [Compound 214, (9S)-12-(4-acetylphenyl)-9-hydroxy-4-thia-2,12-diazatricyclo[7.3.0.0^3,7]dodeca-1,3(7),5-trien-8-one]	36	100	8	59	49	6	52	100	80	97	1.2	100	8.8	86	30	73	2.9	36	21	34	solubility [2]: 820 µM; IC50 [6]: 1 µM; % inhibition. complete NM2A [6]: 32%; inhibition at 5 µM [6]: 25%; inhibition at 50 µM [6]: 31%; Inhibition (%) NM2C ([8]; maximum inhibition, compounds in IC50 range 1-5 μM): 36%
Cc1cc2c(s1)N=C1N(c3ccc(OC(F)(F)F)cc3)CCC1(O)C2=O (stereo not shown) [Compound 223, 9-Hydroxy-5-methyl-12-[4-(trifluoromethoxy)phenyl]-4-thia-2,12-diazatricyclo[7.3.0.0^3,7]dodeca-1,3(7),5-trien-8-one]	11.1	100	21	96	1.1	79	99	100	95	95	0.012	95	2.2	98	68	93	3	88	52	82	Maximum change in isometric force at rear leg (%) ([9]; 0.2 mg i.p.): 23%; Maximum change in isometric force at rear leg (%) ([9]; 1 mg i.p.): 25%; Maximum change of vital parameters (%) heart rate ([10]; 0.2 mg i.p.): 5%; Maximum change of vital parameters (%) oxygen saturation ([10]; 0.2 mg i.p.): −10%; Maximum change of vital parameters (%) respiratory frequency ([10]; 0.2 mg i.p.): −13%; Maximum change of vital parameters (%) blood flow ([10]; 0.2 mg i.p.): 8%; Maximum change of vital parameters (%) heart rate ([10]; 1 mg i.p.): 19%; Maximum change of vital parameters (%) oxygen saturation ([10]; 1 mg i.p.): −7%; Maximum change of vital parameters (%) respiratory frequency ([10]; 1 mg i.p.): −22%; Maximum change of vital parameters (%) blood flow ([10]; 1 mg i.p.): 25%
N#Cc1ccc(N2CC[C@@]3(O)C(=O)c4ccsc4N=C23)cc1 [Compound 213, (9S)-4-{9-Hydroxy-8-oxo-4-thia-2,12-diazatricyclo[7.3.0.0^3,7]dodeca-1,3(7),5-trien-12-yl}benzonitrile]	3.5	87	50	81	18	16	57	78	89	98	0.58	99	1.8	87	61	84	8	63	22	54	Inhibition (%) Dicty ([1]; maximum inhibition, compounds in IC50 range 1-11 μM): 87%; solubility [2]: 410 µM; IC50 [6]: 23 µM; % inhibition. complete NM2A [6]: 74%; inhibition at 5 µM [6]: 13%; inhibition at 50 µM [6]: 51%
